Laboratory results: patent US20100256332A1, “GLP-1 Fusion Peptides, Their Production and Use” (BIOCOMPATIBLES UK LTD, priority 2007, published 2010)
Where no end group is shown, it is not given here.

What was measured:
[1] = tested on: type II diabetic mice (C57BUKs-Lepr db/db); test: In vivo bioactivity in type II diabetic mice; parameters: species or system mouse; settings: 5 μg peptide s.c. twice a day, Day 2, 4, 7, 10, overnight fasted
Experimental: 11-week-old type II diabetic mice (C57BUKs-Lepr^db/db, Harlan) were treated with 5 μg peptide by subcutaneous injection twice a day at 9 a.m. and 5 p.m. (n=5 per group).
Blood glucose was measured before (day 0) and after treatment with GLP^CM peptides (Day 2, 4, 7, 10) at 10 a.m. after an overnight fastening period. Data were presented in relation to blood glucose levels measured at day 0.
Best results were obtained with recombinant SEQ ID No.:6 (CM1) and synthetic SEQ ID No.:8 (CM3). In FIG. 5 (y-axis) the relative effect of the treatment is shown. Blood glucose at day=0 was set to 1. Untreated animals undergo continuous increase in blood glucose level over time, whereas animals treated with inventive peptides display grosso modo a continuous decrease of the blood glucose level over time.

[2] = tested on: diabetic C57BL/KsJ@Rj-db (db/db) mice; test: Dose-efficacy study in diabetic mice; type: in vivo, mouse; settings: for fall in plasma glucose @1 h: 1 hour after single s.c. injection of 1.1-3.0 nmol peptide; for fall in plasma glucose @1 h / fall in plasma glucose @4 h: versus control; for fall in plasma glucose @4 h: 4 hours after single s.c. injection of 1.1-3.0 nmol peptide; for plasma glucose ED50: single s.c. dose, percentage decrease of blood glucose at 1h
Experimental: A sixth group was treated with saline only. 7 animals were treated per group. Blood glucose was determined from tail bleeds directly before, 1 hour and 4 hours after injection.
The results are shown in dose-response curves according to FIG. 8 (FIG. 8A (GLP-1), FIG. 8B (CM1), FIG. 8C(CM3) and FIG. 8D (CM3-ANA01)). For every test substance a graph was prepared with the percentage difference of the blood glucose in relation to the start value for the different concentrations. […] Both models are sigmoidal fit models suitable for dose response evaluation. For every peptide the plasma glucose ED50 values (single s.c. dose in μg/mouse) have been determined from the percentage decrease of blood glucose.
The fall in plasma glucose and the corresponding significance levels are given for the time period 1 hour (@1 h) and 4 hours (@4h) after peptide injection. Differences have been observed in the long-term efficacy of the peptides.

[3] = tested on: C57BL/KsJ@Rj-db (db/db) mice; test: Long-term treatment of db/db mice; type: in vivo, mouse; settings: for non fasted blood glucose level 1h after s.c. peptide injection, compared to control: tail bleed 1 hour after injection; for fasted blood glucose level 18h after peptide injection: 12-hour overnight fast, 18 hours after s.c. injection; for food consumption: weekly, 122 day treatment period, compared to the control
Text: The regimen was continued for 18 weeks. From week 12 to 18 treatment was done twice a day in 6 of 12 animals per group. Various parameters of the mice were investigated, i.e. health status (1), body weight (2), food consumption (3), blood glucose (4), glucose tolerance test (5), insulin data (6), glycosylated hemoglobin (7), pathology (8), and restimulation of T cells (9). • Health status (1) was good in all groups, no side effects of the treatment have been seen. • Body weight (2) was lower in all treated groups after 18 weeks of treatment (FIG. 9). […] The relative body weight increase of 12 animals per group after a treatment of 122 days is plotted. […] Non-fasted blood glucose level (1 hour after peptide injection) is shown in FIG. 11A, i.e. the effect of a treatment with saline (A), CM1 (B), CM3-ANA01 (C) or exendin (D) on the non-fasted blood glucose levels. Blood glucose was measured from a tail bleed 1 hour after s.c. injection of saline (A) or the peptides CM1 (B), CM3-ANA01 (C) or exendin (D) in a concentration of 24 nmol/kg. Compared to control non fasted blood glucose level 1h after s.c. peptide injection is reduced to 55% in group B, 51% in group C and 60% in group D (FIG. 11B). The blood glucose decrease in the treated groups treated groups is highly significant (p<0.0001). Fasted blood glucose level (18 hours after peptide injection) are shown in FIG. 11C, i.e. the effect of a treatment with saline (A), CM1 (B), CM3-ANA01 (C) or exendin (D) on the fasted blood glucose levels. Blood glucose was measured from a tail bleed after a 12-hour overnight fast 18 hours after s.c. injection of the test substances. Fasted blood glucose level 18h after peptide injection is reduced in the CM1 and CM3-ANA01 group. • An i.p. glucose tolerance test (5) (IPGTT) was conducted after 8 weeks of treatment on mice of the groups A-D. […] Blood glucose has been further on determined 15, 30, 45, 60, 90 and 120 minutes after glucose injection. A significant normalization of glucose tolerance was shown in all treated groups (FIG. 12A). In FIG. 12A absolute blood glucose levels during an i.p. glucose tolerance test (IPGTT) after 8 weeks of treatment with saline (A), CM1 (B), CM3-ANA01 (C) or exendin (D) is shown (mean values of each group (n=12)). • Another presentation of the data presented by FIG. 12A of the blood glucose tolerance test is given in FIG. 12B. Relative blood glucose levels during an i.p. glucose tolerance test (IPGTT) after 8 weeks of treatment with saline (A), CM1 (B), CM3-ANA01 (C) or exendin (D) normalized on the starting blood glucose level (100%). • Insulin levels (6) were determined from mice after a 12 hour overnight fastening period. […] Directly after sampling blood samples have been treated with a protease inhibitor cocktail to avoid insulin degradation. The serum was analysed for insulin with the Insulin Mouse Ultrasensitive ELISA (Cat.# EIA-3440, DRG). Significance has been determine with Student's t-test. • Glycosylated hemoglobin (7) is formed by excess plasma glucose binding to hemoglobin in red blood cells (RBC). Since RBCs have a 120-day lifespan, measurements of the glycolylated hemoglobin gives a longer-term indication of glucose control and is seen as a better indicator than plasma glucose levels. Whole blood was collected from the retro-orbital sinus and analyzed with the Enzymatic HbA1c Test Kit (#DZ121A, Diazyme) to determine the glycosylated hemoglobin levels. […] The mean value of all animals per group (n=12) is given. […] Therefore, the spleen of 8 animals per group was explanted, T-cells isolated and restimulated with different concentrations of the corresponding test substance. Compared to non-treated controls no significant increase in peptide restimulated T-cell proliferation was found. […] The stimulation index (SI) was calculated as the quotient of the response in the presence of the respective peptide and the response in the absence of peptides. […]

[4] = tested on: BALB/c mice; test: Immunogenicity study in BALB/c mice
Experimental: The trial was done in BALB/c mice receiving 5 repeated injections (70 μg peptide/dose, i.v.) over 22d (n=5).
Spleens of the treated and control mice were explanted, T-cells isolated and stimulated with increasing amounts of antigene. Proliferative recall response is measured.

[5] = In vitro human plasma stability of GLP-1 CM peptides; settings: 20 ng/ml peptide, 37° C., 3 hours, GLP-1 (Active) ELISA, versus native GLP-1(7-37)
Text: Dipeptidylpeptidase activity of the plasma was inhibited by an DPP-IV inhibitor (#DPP4, Biotrend).

[6] = human, 1 μM, pH 7.8
Text: (§1) Results are from triplicates in at least two independent experiments.

[7] = In vitro plasma stability, kinetic test method; settings: 1 μM peptide, 10% human plasma, 37° C., 0-9 hours
Text: as §1

[8] = 5 repeated injections, 70 μg peptide/dose, i.v., over 22d, BALB/c mice

active GLP-1 left after 9h plasma exposure, % of the 0 h value [6]	in vitro plasma stability, comparison in words [7]	Substance	anti-hyperglycemia effect (blood glucose in relation to day 0) ([1]; listed as SEQ ID No.:6)	anti-hyperglycemia effect (blood glucose in relation to day 0) ([1]; listed as recombinant SEQ ID No.:6)	fall in plasma glucose @1 h [2]	fall in plasma glucose @4 h [2]	plasma glucose ED50 [2]	non fasted blood glucose level 1h after s.c. peptide injection, compared to control ([3]; 24 nmol/kg s.c.)	fasted blood glucose level 18h after peptide injection [3]	food consumption ([3]; p<0.001)	T-cell antibody response and antibody titer [4, 8]	toxicity [4, 8]	clinically relevant immunogenicity ([4]; immunogenicity study in mice)	stability in human plasma in vitro (active GLP) [5]	relative body weight increase ([3]; after a treatment of 122 days, 24 nmol/kg s.c., p<0.001)
–	–	GLP-1 (7-37)-IP2-RR-GLP1(7-37) [CM1]	anti-hyperglycemia effect	Best results	50% ± 14% @1 h	0% @4 h	0.61 μg/mouse	55%	reduced	significantly lower	minimal	no toxicity	absence of any clinically relevant immunogenicity	significantly stabilized	–
–	–	HAEGTFTSDVSSYLEGQAAKEFIAWLVKGRGRRDFPEEVAIAEELG [CM3, GLP-1(7-37)-IP2]	–	–	–	–	–	–	–	–	–	–	–	significantly stabilized	–
84%	higher plasma stability than CM3	HAEGTFTSDVSSYLEGQAAKEFIAWLVKGRGAADFPEEVAIAEELG [CM3-ANA01]	–	–	62% ± 12% @1 h	18% ± 11% @4 h	0.55 μg/mouse	51%	reduced	significantly lower	–	–	–	–	significantly lower
